Measured values as given in patent US8552058B2, “Application of L-n-butylphthalide in preventing and treating dementia” (CSPC Zhongqi Pharmaceutical Technology (Shijazhuang) Co., …, priority 2004, dated 2013).
“Also recorded” adds a separate entry of the source.

What was measured:
Format in all cases: in vivo, Wistar rats
[1] = test system: rats with continuous perfusion of Aβ (1-40) into lateral ventricle; assay: Morris' water maze and working memory test after continuous i.c.v. perfusion of Aβ (1-40); details: for search strategy after 5 days of training / latency after 5 days of training: Aβ (1-40) i.c.v. rats; for latency after 5 days of training: mean±standard error, model 30.18±4.81, sham 13.02±2.77, p<0.05 vs model
Method: For Morris' Water Maze Automatic Monitor and experimental protocols, reference may be made to the experiments of learning and memory damage of rats induced by brain hypoperfusion.
(§1) Male Wistar rats, which were 10-weeks old and weighed approximately 280 grams, were used. One animal was placed in one cage, while the room temperature was kept at 23° C., with food and water freely accessible. Rats were anaesthetized with sodium pentobarbital (40 mg/kg), and were fixed to stereotaxic apparatus with the position of ventral decubitus. Head skin was cut open, a cannula for Aβ (1-40) perfusion was implanted into right ventricle. According to the stereotaxic profile of rat brain by Paxions and Watson, the implantation site was located 0.3 mm behind and 1.1 mm in the right side of anterior fontanelle, with the depth of 4.0 mm. The cannula was connected to a micro-osmotic pump. The pump was placed on the back of the rat. Aβ (1-40) was dissolved in 35% acetonitrile/0.1% trifluroacetic acid, and was continuously perfused intracerebroventricularly (i.c.v.) at 300 pmol/day, while only the solvent (35% acetonitrile/0.1% trifluroacetic acid) was perfused in the control group.
(§2) Rats were randomly classified into […] groups, with 10 animals per group. 1) the sham surgery group: only 35% acetonitrile/0.1% trifluroacetic acid+solvent was perfused into the ventricles of the rats; 2) the model group: Aβ (1-40)+solvent; 3) Aβ (1-40)+L-NBP 10 mg/kg group; 4) Aβ (1-40)+L-NBP 30 mg/kg group. Respective drug or solvent was drenched since the 2nd day after the surgery. The water maze experiment was performed on the 9-13 day after the surgery, while the platform exploration experiment was performed on the 13th day, and the working memory test was performed on the 14-16th days. Animals were decapitated to remove brains for biochemical assay on the 17th day. In all ethological tests, medicines were administered 40 minutes prior to the respective test.
The water maze training experiment was performed on the 9-13th day after icv Aβ (1-40), and the platform exploration experiment was performed on the 13 day after that. The working memory test was performed on the 14-16th day after icv Aβ (1-40) (see the figure above), which investigated the ability of rapid learning and spatial memory in animals when the platform and quadrant were changed, based on the fact that animals had memorized in some extent after training and platform exploration experiment. Experimental procedure was similar to the standard water maze training experiment except that the platform's location was changed every day. The experiment was conducted five times every day, allowing the rats to start swimming from five water-entry sites respectively. […] In the following 4 experiments, the location of the platform was kept constant, yet the water entry sites were within different quadrants. The latency of working memory was calculated by averaging those of the 2-5th experiments, and the ability of working memory of each rat was calculated by averaging the experimental values in 3 days.
(§3) All results were expressed in mean±standard error. Comparison of latencies between groups in water maze experiment was performed using two-factor analysis of variance in replicate. Comparison between groups was performed using post hoc LSD or Turkey test. Platform exploration test in water maze experiment, working memory test and biochemical assay were analyzed using one-factor analysis of variance. A difference was considered significant when p<0.05.

malondialdehyde (MDA) [2] = assay: MDA content in cortex and hippocampus after continuous perfusion of Aβ (1-40); details: Aβ (1-40) rats; for MDA, hippocampus / MDA, cortex: n = 7; for MDA, hippocampus: model 1.48 ± 0.12, sham 1.13 ± 0.06; for MDA, cortex: model 1.48 ± 0.14, sham 1.10 ± 0.09
Method: as §1, §2
(§4) Malondialdehyde (MDA) and glutathione peroxidase (GSH-Px) were determined by the same assays as above.
as §3

[3] = test system: rats with permanent ligation of bilateral common carotid arteries (2-VO model); assay: Morris' water maze (training latency, platform exploration) in 2-VO hypoperfusion model; details: for amelioration of impaired short-term memory and spatial orientation (overall conclusion): 2-VO rats with poor blood supply to brain, L-NBP at 10 mg/kg, 10 mg/kg
[4] = test system: glutathione peroxidase (GSH-Px); assay: GSH-Px activity in cortex and hippocampus after continuous perfusion of Aβ (1-40); details: Aβ (1-40) rats; for GSH-PX, hippocampus / GSH-PX, cortex: n = 7; for GSH-PX, hippocampus: model 9.32 ± 1.01, sham 16.19 ± 1.19; for GSH-PX, cortex: model 11.18 ± 1.32, sham 15.86 ± 0.91
Method: as §1, §2, §4, §3

malondialdehyde (MDA) [5] = assay: MDA content in cortex and hippocampus of hypoperfused (2-VO) rats; details: 10 mg/kg

`CCCC[C@@H]1OC(=O)c2ccccc21` [L-NBP, L-n-butylphthalide] was tested, and the “search strategy after 5 days of training” value ([1]; 10 mg/kg oral) was “changed from peripheral and random to purposive and linear”, the “latency after 5 days of training” value ([1]; 10 mg/kg oral) was 27.28 ± 6.42 s and the “search strategy after 5 days of training” value ([1]; 30 mg/kg oral) was “changed from peripheral and random to purposive and linear”. The “latency after 5 days of training” value ([1]; 30 mg/kg oral) was 25.88 ± 5.51 s, the “working memory (latency in 2-5th experiments)” value ([1]; 10 and 30 mg/kg, days 14-16 after Aβ (1-40), model 14.05±1.88 s, sham 9.15±0.91 s, p<0.01) was “can significantly improve the working memory ability in a dose-dependent way; also recorded: could improve the working memory of rats in a dose-dependent manner” and the “amelioration of impaired short-term memory and stereotaxic memory (overall conclusion)” value ([1]; continuous perfusion of Aβ (1-40) into lateral ventricle, rats, Morris' water maze) was “could significantly ameliorate”. The “MDA, hippocampus” value (malondialdehyde (MDA) [2]; 10 mg/kg, p<0.01 vs model) was 1.12 ± 0.07 nmol/mg protein, the “MDA, cortex” value (malondialdehyde (MDA) [2]; 10 mg/kg, p<0.05 vs model) was 1.06 ± 0.05 nmol/mg protein and the “reduction of hippocampal MDA content” value (malondialdehyde (MDA) [2]; 10 mg/kg, vs model, p<0.01) was 24.3%. For the same molecule, the “reduction of cortical MDA content” value (malondialdehyde (MDA) [2]; 10 mg/kg, vs model, p<0.05) was 28.4%, the “MDA, hippocampus” value (malondialdehyde (MDA) [2]; 30 mg/kg, p<0.05 vs model) was 1.15 ± 0.07 nmol/mg protein and the “MDA, cortex” value (malondialdehyde (MDA) [2]; 30 mg/kg, p<0.05 vs model) was 1.06 ± 0.10 nmol/mg protein. For the same molecule, the “effect on cortical and hippocampal MDA content (in words)” value (malondialdehyde (MDA) [2]; 30 mg/kg, vs model group p<0.05) was “weaker than that in the 10 mg/kg group, yet were still significantly different; also recorded: a little weaker in the 30 mg/kg group than in the 10 mg/kg group, yet still significantly different”, the “detention time in the target quadrant (platform exploration test, 60 seconds free swimming)” value ([3]; 10 mg/kg oral, 2-VO rats, mean±standard error, solvent control 14.40±0.73, sham 17.73±1.19, p<0.05 vs solvent control) was 17.62 ± 1.27 s and the “latency (time required for finding the platform) after 5 days of training” value ([3]; 10 mg/kg oral, 2-VO rats, mean±standard error, solvent control 47.6±5.88, sham surgery 12.6±3.34, p<0.001 vs solvent control) was 26.85 ± 5.98 s. The “search strategy after 5 days of training” value ([3]; 10 mg/kg oral, 2-VO rats, solvent control still peripheral and random) was “changed from peripheral and random to purposive and linear”, the “amelioration of impaired short-term memory and spatial orientation (overall conclusion)” value [3] was “could significantly ameliorate” and the “amelioration of impaired short-term memory and spatial orientation (overall conclusion)” value ([3]; listed as L-n-butylphthalide) was “could significantly improve; also recorded: could significantly ameliorate”. For the same molecule, the “GSH-Px activity after treatment (in words)” value ([4]; 10 mg/kg) was “could also increase the activity of GSH-Px, but with no statistically significant difference”, the “GSH-PX, hippocampus” value ([4]; 10 mg/kg) was 12.73 ± 1.34 U/mg protein and the “GSH-PX, cortex” value ([4]; 10 mg/kg) was 11.73 ± 0.53 U/mg protein. For the same molecule, the “GSH-PX, hippocampus” value ([4]; 30 mg/kg, p<0.01 vs model) was 18.91 ± 1.16 U/mg protein, the “GSH-PX, cortex” value ([4]; 30 mg/kg, p<0.01 vs model) was 15.40 ± 1.03 U/mg protein and the “GSH-Px activity after treatment (in words)” value ([4]; 30 mg/kg, p<0.01) was “increased significantly”. For the same molecule, the “GSH-Px activity and MDA content (overall conclusion)” value [4] was “could improve GSH-Px activity and reduce MDA content”, the “reduction of MDA content in cortex” value (malondialdehyde (MDA) [5]; 2-VO rats, vs model group, p<0.001) was 20.7% and the “MDA content, hippocampus” value (malondialdehyde (MDA) [5]; hypoperfused rats, n = 7-9, solvent control 3.63 ± 0.45, sham 3.03 ± 0.12) was 3.42 ± 0.12 nmol/mg protein. The “MDA content, cortex” value (malondialdehyde (MDA) [5]; hypoperfused rats, n = 7-9, solvent control 3.91 ± 0.22, sham 3.13 ± 0.10, p<0.001 vs solvent control) was 3.10 ± 0.09 nmol/mg protein.
